Experimental findings from US20150165380A1, “DRAW SOLUTES COMPRISING ALKYL AMMONIUM SALT COMPOUNDS” (Samsung Electronics Co., Ltd., priority 2013, published 2015) are described below.

The nature of data set [1]: Evaluation of osmotic pressure of draw solutions (Osmomat 010, freezing point lowering method). It is filed as physicochemical.
Experimental: Osmotic pressure of each draw solution is measured by using osmotic pressure measurement equipment (Osmomat 010) in accordance with the freezing point lowering method.
Data set [2] can be described thus: Osmotic flow analysis: water flux and reverse solute flux in U-shaped semi-dynamic forward osmosis apparatus. The following applies: feed distilled water.
Experimental: The osmotic flow is evaluated with a homemade, U-shaped semi-dynamic forward osmosis apparatus. To test performance of the draw solute, a semi-permeable commercialized FO membrane (cellulose trifluoroacetate) (Hydration Technology Innovation (HTI), USA) is placed in the middle of the apparatus. Each side is filled with distilled water as a feed solution and a draw solution with predetermined or given concentrations, respectively. The selective layer is faced toward the feed solutions and osmotic water flux from feed to draw solutions is calculated from the volumetric change of each solution during one hour after 30 min. The reversed solute flux from draw to feed solution through the membrane is measured by conductivity, inductively coupled plasma optical emission spectroscopy (ICP-OES), and total organic carbon (TOC).
[3] abbreviates: draw solution osmotic pressure 15.0.
[4] abbreviates: draw solution osmotic pressure 29.0.
The mark [5] stands for this setting: draw solution osmotic pressure 43.0.
Setting [6] is: draw solution osmotic pressure 8.3.
Where [7] appears, read: draw solution osmotic pressure 23.5.
Setting [8] is: draw solution osmotic pressure 57.6.

Consider `[Cl-].[Cl-].[Mg+2]` [Comp. Example 1, MgCl2], for which the Osmotic pressure is 11.9 atm in data set [1] (draw solution concentration 19.0 mg/ml), 25.2 atm in data set [1] (draw solution concentration 38.1 mg/ml) and 60.6 atm in data set [1] (draw solution concentration 76.2 mg/ml). The Reverse solute flux in data set [2] (setting [3]) is 3.3 GMH; in data set [2] (setting [4]), 4.8 GMH; in data set [2] (setting [5]), 5.6 GMH. Also, the Water flux in data set [2] (setting [3]) was found to be 5.6 LMH; in data set [2] (setting [4]) it was 8.2 LMH; in data set [2] (setting [5]), 9.7 LMH.

Regarding `O=S(=O)([O-])[O-].[Mg+2]` [Comp. Example 2, MgSO4], the Osmotic pressure in data set [1] (draw solution concentration 60.2 mg/ml) stood at 11.7 atm; in data set [1] (draw solution concentration 120.4 mg/ml), 25.8 atm; in data set [1] (draw solution concentration 240.7 mg/ml) it was 62.4 atm. The values for the Reverse solute flux in data set [2] (setting [3]) and in data set [2] (setting [4]) were 0.9 GMH and 1.2 GMH, respectively. Moreover, the Water flux was determined as 4.2 LMH in data set [2] (setting [3]) and 5.5 LMH in data set [2] (setting [4]).

On to `NCCN.O=C(O)CC(O)(CC(=O)O)C(=O)[O-].O=C([O-])CC(O)(CC(=O)[O-])C(=O)[O-].[Na+].[Na+].[Na+].[Na+]` [Example 1], for which the Osmotic pressure in data set [1] (draw solution concentration 29.6 mg/ml) was found to be 5.8 atm; in data set [1] (draw solution concentration 118.4 mg/ml) it was 21.8 atm; in data set [1] (draw solution concentration 177.6 mg/ml) it was 33.8 atm; in data set [1] (draw solution concentration 236.8 mg/ml), 50.4 atm; in data set [1] (draw solution concentration 266.4 mg/ml) it was 61.1 atm. For the same molecule, the Reverse solute flux in data set [2] (setting [6]) turned out to be 0 GMH; in data set [2] (setting [7]), 0.02 GMH; in data set [2] (setting [8]), 0.41 GMH. In addition, the Water flux is listed as 4.06 LMH in data set [2] (setting [6]), 8.25 LMH in data set [2] (setting [7]) and 11.58 LMH in data set [2] (setting [8]).

As to `NCCNCCNCCNCCN.O=C(O)CC(O)(CC(=O)O)C(=O)[O-].O=C(O)CC(O)(CC(=O)O)C(=O)[O-].O=C([O-])CC(O)(CC(=O)O)C(=O)[O-].O=C([O-])CC(O)(CC(=O)[O-])C(=O)[O-].O=C([O-])CC(O)(CC(=O)[O-])C(=O)[O-].[Na+].[Na+].[Na+].[Na+].[Na+].[Na+].[Na+].[Na+].[Na+].[Na+]` [Example 2], the Osmotic pressure in data set [1] (draw solution concentration 34.2 mg/ml) was 6.3 atm; in data set [1] (draw solution concentration 68.5 mg/ml), 11.8 atm; in data set [1] (draw solution concentration 102.7 mg/ml), 17.5 atm; in data set [1] (draw solution concentration 205.43 mg/ml), 37.5 atm; in data set [1] (draw solution concentration 301.2 mg/ml), 67.1 atm.

For `NCCCCCCNCCCCCCN.O=C(O)CC(O)(CC(=O)O)C(=O)[O-].O=C([O-])CC(O)(CC(=O)O)C(=O)[O-].O=C([O-])CC(O)(CC(=O)[O-])C(=O)[O-].[Na+].[Na+].[Na+].[Na+].[Na+].[Na+]` [Example 4], the Osmotic pressure in data set [1] (draw solution concentration 46.2 mg/ml) is 8.6 atm; in data set [1] (draw solution concentration 92.3 mg/ml) it was 17.2 atm; in data set [1] (draw solution concentration 184.6 mg/ml) it was 38.2 atm; in data set [1] (draw solution concentration 249.2 mg/ml), 59.3 atm.

`NCCNCCN.O=S(=O)(O)O.O=S(=O)([O-])O.O=S(=O)([O-])[O-].[Na+].[Na+].[Na+]` [Example 7]: the Osmotic pressure is listed as 10.2 atm in data set [1] (draw solution concentration 46.3 mg/ml); 18.2 atm in data set [1] (draw solution concentration 92.6 mg/ml); 20.4 atm in data set [1] (draw solution concentration 185.2 mg/ml); 26.8 atm in data set [1] (draw solution concentration 277.8 mg/ml); 37.6 atm in data set [1] (draw solution concentration 370.4 mg/ml); 62.8 atm in data set [1] (draw solution concentration 463.0 mg/ml).
